How the values were obtained:
[1] = test system: Human immunodeficiency virus 1; test: Selectivity ratio of IC50 for 20 week drug adapted HIV1 HXB-2D harboring reverse transcriptase M184V, M41L, T215Y mutant gene to IC50 for HIV1 HXB-2D harboring reverse transcriptase M184V, M41L, T215Y mutant gene; type: functional
[2] = test system: Human immunodeficiency virus 1; test: Selectivity ratio of IC50 for 8 week drug adapted HIV1 HXB-2D harboring reverse transcriptase K65R mutant gene to IC50 for HIV1 HXB-2D harboring reverse transcriptase K65R mutant gene; type: functional
[3] = test system: Human immunodeficiency virus 1; test: Selectivity ratio of IC50 for 17 week drug adapted HIV1 HXB-2D harboring reverse transcriptase S68S/G mutant gene to IC50 for HIV1 HXB-2D harboring reverse transcriptase K65R mutant gene; type: functional
[4] = test system: Human immunodeficiency virus 1; test: Selectivity ratio of IC50 for 51 week drug adapted HIV1 HXB-2D harboring reverse transcriptase M184V/M, K65R mutant gene to IC50 for HIV1 HXB-2D harboring wild type reverse transcriptase; type: functional
[5] = test system: Human immunodeficiency virus 1; test: Selectivity ratio of IC50 for 32 week drug adapted HIV1 HXB-2D harboring reverse transcriptase K65R mutant gene to IC50 for HIV1 HXB-2D harboring reverse transcriptase K65R mutant gene; type: functional
[6] = test system: Human immunodeficiency virus 1; test: Selectivity ratio of IC50 for 38 week drug adapted HIV1 HXB-2D harboring reverse transcriptase V101I/V, D177N, E194G mutant gene to IC50 for HIV1 HXB-2D harboring reverse transcriptase M184V mutant gene; type: functional
[7] = test system: Human immunodeficiency virus 1; test: Antiviral activity against HIV1 HXB-2D harboring reverse transcriptase M184V mutant gene infected in human cord blood mononuclear cells; type: functional, organism-based; conditions: Human immunodeficiency virus 1, HXB-2D
[8] = test system: Human immunodeficiency virus 1; test: Selectivity ratio of IC50 for 8 week drug adapted HIV1 HXB-2D harboring reverse transcriptase F87L/F mutant gene to IC50 for HIV1 HXB-2D harboring reverse transcriptase M184V mutant gene; type: functional
[9] = test system: Human immunodeficiency virus 1; test: Antiviral activity against wild type HIV1 HXB-2D infected in human cord blood mononuclear cells; type: functional, organism-based; conditions: Human immunodeficiency virus 1, HXB-2D
[10] = test system: Human immunodeficiency virus 1; test: Selectivity ratio of IC50 for 28 week drug adapted HIV1 HXB-2D harboring reverse transcriptase M184V, M41L, T215Y mutant gene to IC50 for HIV1 HXB-2D harboring reverse transcriptase M184V, M41L, T215Y mutant gene; type: functional
[11] = test system: Human immunodeficiency virus 1; test: Selectivity ratio of IC50 for 17 week drug adapted HIV1 HXB-2D harboring reverse transcriptase D177N/D, E194E/G mutant gene to IC50 for HIV1 HXB-2D harboring reverse transcriptase M184V mutant gene; type: functional
[12] = test system: Human immunodeficiency virus 1; test: Antiviral activity against HIV1 HXB-2D harboring reverse transcriptase M184V, M41L and T215Y mutant gene infected in human cord blood mononuclear cells; type: functional, organism-based; conditions: Human immunodeficiency virus 1, HXB-2D
[13] = test system: Human immunodeficiency virus 1; test: Selectivity ratio of IC50 for 17 week drug adapted HIV1 HXB-2D harboring reverse transcriptase D237N mutant gene to IC50 for HIV1 HXB-2D harboring wild type reverse transcriptase; type: functional
[14] = test system: Human immunodeficiency virus 1; test: Antiviral activity against HIV1 HXB-2D harboring reverse transcriptase K65R mutant gene infected in human cord blood mononuclear cells; type: functional, organism-based; conditions: Human immunodeficiency virus 1, HXB-2D
[15] = test system: Human immunodeficiency virus 1; test: Selectivity ratio of IC50 for 32 week drug adapted HIV1 HXB-2D harboring reverse transcriptase V101I/V, D177N, E194G mutant gene to IC50 for HIV1 HXB-2D harboring reverse transcriptase M184V mutant gene; type: functional
[16] = test system: Human immunodeficiency virus 1; test: Selectivity ratio of IC50 for HIV1 HXB-2D harboring reverse transcriptase M184V mutant gene to IC50 for wild type HIV1 HXB-2D infected in human cord blood mononuclear cells; type: functional
[17] = test system: Human immunodeficiency virus 1; test: Selectivity ratio of IC50 for 32 week drug adapted HIV1 HXB-2D harboring wild type reverse transcriptase to IC50 for HIV1 HXB-2D harboring wild type reverse transcriptase; type: functional
[18] = test system: Human immunodeficiency virus 1; test: Selectivity ratio of IC50 for 38 week drug adapted HIV1 HXB-2D harboring reverse transcriptase I50T/II, D237N/D mutant gene to IC50 for HIV1 HXB-2D harboring wild type reverse transcriptase; type: functional
[19] = test system: Human immunodeficiency virus 1; test: Selectivity ratio of IC50 for HIV1 HXB-2D harboring reverse transcriptase K65R mutant gene to IC50 for wild type HIV1 HXB-2D infected in human cord blood mononuclear cells; type: functional
[20] = test system: Human immunodeficiency virus 1; test: Selectivity ratio of IC50 for 8 week drug adapted HIV1 HXB-2D harboring reverse transcriptase D237N mutant gene to IC50 for HIV1 HXB-2D harboring wild type reverse transcriptase; type: functional
[21] = test system: Human immunodeficiency virus 1; test: Selectivity ratio of IC50 for 38 week drug adapted HIV1 HXB-2D harboring reverse transcriptase S68S/G mutant gene to IC50 for HIV1 HXB-2D harboring reverse transcriptase K65R mutant gene; type: functional
[22] = test system: Human immunodeficiency virus 1; test: Selectivity ratio of IC50 for 48 week drug adapted HIV1 HXB-2D harboring reverse transcriptase M184V mutant gene to IC50 for HIV1 HXB-2D harboring wild type reverse transcriptase; type: functional
[23] = test system: Human immunodeficiency virus 1; test: Selectivity ratio of IC50 for 51 week drug adapted HIV1 HXB-2D harboring reverse transcriptase M184V, K65R mutant gene to IC50 for HIV1 HXB-2D harboring wild type reverse transcriptase; type: functional
[24] = test system: Human immunodeficiency virus 1; test: Selectivity ratio of IC50 for HIV1 HXB-2D harboring reverse transcriptase M184V, M41L and T215Y mutant gene to IC50 for wild type HIV1 HXB-2D infected in human cord blood mononuclear cells; type: functional
[25] = test system: Human immunodeficiency virus 1; test: Selectivity ratio of IC50 for 8 week drug adapted HIV1 HXB-2D harboring reverse transcriptase M184V, M41L, T215Y mutant gene to IC50 for HIV1 HXB-2D harboring reverse transcriptase M184V, M41L, T215Y mutant gene; type: functional

Nc1ccn([C@H]2CO[C@@H](CO)S2)c(=O)n1 [APRICITABINE]
fold change (FC) [1]: 3.7 | fold change (FC) [2]: 0.5 | fold change (FC) [3]: 0.5 | fold change (FC) [4]: 13.3 | fold change (FC) [5]: 2.5 | fold change (FC) [6]: 3.4 | IC50 [7]: 17.9 µM | fold change (FC) [8]: 1.7 | IC50 [9]: 7.54 µM | fold change (FC) [10]: 3.7 | fold change (FC) [11]: 1.1 | IC50 [12]: 13.4 µM | fold change (FC) [13]: 1.3 | IC50 [14]: 20.3 µM | fold change (FC) [15]: 3.4 | fold change (FC) [16]: 2.37 | fold change (FC) [17]: 4 | fold change (FC) [18]: 8 | fold change (FC) [19]: 2.69 | fold change (FC) [20]: 4 | fold change (FC) [21]: 3 | fold change (FC) [22]: 8 | fold change (FC) [23]: 8 | fold change (FC) [24]: 1.77 | fold change (FC) [25]: 0.7

Source: ChEMBL document CHEMBL1629678, “Apricitabine does not select additional drug resistance mutations in tissue culture in human immunodeficiency virus type 1 variants containing K65R, M184V, or M184V plus thymidine analogue mutations” (Antimicrob Agents Chemother, 2009)
